Test results: ChEMBL document CHEMBL1201862, “PubChem BioAssay data set” (2004)
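Exposure lasted 48 hours, with cells grown in 96-well plates and compounds tested at five concentrations. GI50 marks 50% less growth.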 The source made the active and inactive calls. No stated cut-off is given here; in the data, active = GI50 up to about 1.1 µM and inactive = higher.

How the values were obtained:
Assay in all cases: NCI-60 cell line screen, 48 h
KM12 = tested on: KM12
MDA-MB-435 = tested on: MDA-MB-435
M14 = tested on: M14
SF-539 = tested on: SF-539
A549 = tested on: A549
OVCAR-8 = tested on: OVCAR-8
UO-31 = tested on: UO-31
RPMI-8226 = tested on: RPMI-8226
CAKI-1 = tested on: CAKI-1
U-251 = tested on: U-251
OVCAR-5 = tested on: OVCAR-5
SNB-75 = tested on: SNB-75
HCC 2998 = tested on: HCC 2998
MDA-N = tested on: MDA-N
NCI-H226 = tested on: NCI-H226
UACC-257 = tested on: UACC-257
NCI-H522 = tested on: NCI-H522
HL-60 = tested on: HL-60
RXF 393 = tested on: RXF 393
SF-268 = tested on: SF-268
UACC-62 = tested on: UACC-62
EKVX = tested on: EKVX
COLO 205 = tested on: COLO 205
T47D = tested on: T47D
SR = tested on: SR
CCRF-CEM = tested on: CCRF-CEM
SK-MEL-28 = tested on: SK-MEL-28
BT-549 = tested on: BT-549
LOX IMVI = tested on: LOX IMVI
SK-OV-3 = tested on: SK-OV-3
OVCAR-3 = tested on: OVCAR-3
786-0 = tested on: 786-0
HT-29 = tested on: HT-29
IGROV-1 = tested on: IGROV-1
HCT-116 = tested on: HCT-116
HCT-15 = tested on: HCT-15
ACHN = tested on: ACHN
DU-145 = tested on: DU-145
PC-3 = tested on: PC-3
Malme-3M = tested on: Malme-3M
MDA-MB-231 = tested on: MDA-MB-231
SN12C = tested on: SN12C
TK-10 = tested on: TK-10
SF-295 = tested on: SF-295
SW-620 = tested on: SW-620
NCI/ADR-RES = tested on: NCI/ADR-RES
MCF7 = tested on: MCF7
SNB-19 = tested on: SNB-19
SK-MEL-5 = tested on: SK-MEL-5
K562 = tested on: K562
HOP-62 = tested on: HOP-62
NCI-H23 = tested on: NCI-H23
MOLT-4 = tested on: MOLT-4
HOP-92 = tested on: HOP-92
SK-MEL-2 = tested on: SK-MEL-2
A498 = tested on: A498
OVCAR-4 = tested on: OVCAR-4
NCI-H460 = tested on: NCI-H460

Structure (SMILES): CC#CC(O)(C(=O)OC1CC(C)N(C)C(C)(C)C1)C1CCCC1 (stereo not given)
- GI50 (KM12): > 100 µM (inactive)
- GI50 (MDA-MB-435): > 100 µM (inactive)
- GI50 (M14): > 100 µM (inactive)
- GI50 (SF-539): > 100 µM (inactive)
- GI50 (A549): > 100 µM (inactive)
- GI50 (OVCAR-8): > 100 µM (inactive)
- GI50 (UO-31): > 100 µM (inactive)
- GI50 (RPMI-8226): > 100 µM (inactive)
- GI50 (CAKI-1): > 100 µM (inactive)
- GI50 (U-251): > 100 µM (inactive)
- GI50 (OVCAR-5): > 100 µM (inactive)
- GI50 (SNB-75): > 100 µM (inactive)
- GI50 (HCC 2998): > 100 µM (inactive)
- GI50 (MDA-N): > 100 µM (inactive)
- GI50 (NCI-H226): > 100 µM (inactive)
- GI50 (UACC-257): > 100 µM (inactive)
- GI50 (NCI-H522): > 100 µM (inactive)
- GI50 (HL-60): > 100 µM (inactive)
- GI50 (RXF 393): > 100 µM (inactive)
- GI50 (SF-268): > 100 µM (inactive)
- GI50 (UACC-62): > 100 µM (inactive)
- GI50 (EKVX): > 100 µM (inactive)
- GI50 (COLO 205): > 100 µM (inactive)
- GI50 (T47D): > 100 µM (inactive)
- GI50 (SR): > 100 µM (inactive)
- GI50 (CCRF-CEM): > 100 µM (inactive)
- GI50 (SK-MEL-28): > 100 µM (inactive)
- GI50 (BT-549): > 100 µM (inactive)
- GI50 (LOX IMVI): > 100 µM (inactive)
- GI50 (SK-OV-3): > 100 µM (inactive)
- GI50 (OVCAR-3): > 100 µM (inactive)
- GI50 (786-0): > 100 µM (inactive)
- GI50 (HT-29): > 100 µM (inactive)
- GI50 (IGROV-1): > 100 µM (inactive)
- GI50 (HCT-116): > 100 µM (inactive)
- GI50 (HCT-15): > 100 µM
- GI50 (ACHN): > 100 µM (inactive)
- GI50 (DU-145): > 100 µM (inactive)
- GI50 (PC-3): > 100 µM (inactive)
- GI50 (Malme-3M): > 100 µM (inactive)
- GI50 (MDA-MB-231): > 100 µM (inactive)
- GI50 (SN12C): > 100 µM (inactive)
- GI50 (TK-10): > 100 µM (inactive)
- GI50 (SF-295): > 100 µM (inactive)
- GI50 (SW-620): > 100 µM (inactive)
- GI50 (NCI/ADR-RES): 29 µM (inactive)
- GI50 (MCF7): > 100 µM (inactive)
- GI50 (SNB-19): > 100 µM (inactive)
- GI50 (SK-MEL-5): > 100 µM (inactive)
- GI50 (K562): > 100 µM (inactive)
- GI50 (HOP-62): > 100 µM (inactive)
- GI50 (NCI-H23): > 100 µM (inactive)
- GI50 (MOLT-4): > 100 µM (inactive)

Structure (SMILES): O=C(CN1CCCCC1)Nc1ccc2c(c1)C1Oc3ccccc3CC1CO2 (stereo not given)
- GI50 (KM12): 20.5 µM (inactive)
- GI50 (MDA-MB-435): 18.7 µM (inactive)
- GI50 (M14): 18.2 µM (inactive)
- GI50 (SF-539): 19.1 µM (inactive)
- GI50 (HOP-92): 18.3 µM (inactive)
- GI50 (A549): 32.5 µM (inactive)
- GI50 (OVCAR-8): 39 µM (inactive)
- GI50 (UO-31): 21.2 µM (inactive)
- GI50 (RPMI-8226): 28.8 µM (inactive)
- GI50 (CAKI-1): 35.9 µM (inactive)
- GI50 (U-251): 18 µM (inactive)
- GI50 (OVCAR-5): 18.7 µM (inactive)
- GI50 (SK-MEL-2): 20.2 µM (inactive)
- GI50 (HCC 2998): 19.1 µM (inactive)
- GI50 (MDA-N): 19 µM (inactive)
- GI50 (NCI-H226): 21 µM (inactive)
- GI50 (UACC-257): 19.2 µM (inactive)
- GI50 (NCI-H522): 17.9 µM (inactive)
- GI50 (A498): 30.3 µM (inactive)
- GI50 (HL-60): 46.1 µM (inactive)
- GI50 (SF-268): 34.2 µM (inactive)
- GI50 (UACC-62): 16.4 µM (inactive)
- GI50 (EKVX): 17.2 µM (inactive)
- GI50 (COLO 205): 13.3 µM (inactive)
- GI50 (T47D): 16.4 µM (inactive)
- GI50 (SR): 23.2 µM (inactive)
- GI50 (CCRF-CEM): 34.3 µM (inactive)
- GI50 (BT-549): 19.9 µM (inactive)
- GI50 (LOX IMVI): 16.4 µM (inactive)
- GI50 (SK-OV-3): 32.8 µM (inactive)
- GI50 (OVCAR-3): 27.8 µM (inactive)
- GI50 (786-0): 20.7 µM (inactive)
- GI50 (HT-29): 14.5 µM (inactive)
- GI50 (IGROV-1): 21.1 µM (inactive)
- GI50 (HCT-116): 16.2 µM (inactive)
- GI50 (HCT-15): 15.5 µM
- GI50 (DU-145): 35.2 µM (inactive)
- GI50 (PC-3): 17.7 µM (inactive)
- GI50 (Malme-3M): 16.7 µM (inactive)
- GI50 (MDA-MB-231): 17.3 µM (inactive)
- GI50 (SN12C): 28.4 µM (inactive)
- GI50 (TK-10): 23.8 µM (inactive)
- GI50 (SF-295): 19.5 µM (inactive)
- GI50 (SW-620): 18.8 µM (inactive)
- GI50 (NCI/ADR-RES): 23.9 µM (inactive)
- GI50 (MCF7): 21.8 µM (inactive)
- GI50 (SK-MEL-5): 13.8 µM (inactive)
- GI50 (K562): 58.9 µM (inactive)
- GI50 (HOP-62): 16.9 µM (inactive)
- GI50 (NCI-H23): 24.9 µM (inactive)
- GI50 (MOLT-4): 31.5 µM (inactive)

Structure (SMILES): COc1ccc(N2C(=O)C3c4[nH]c5ccccc5c4C4c5ccccc5CC4C3C2=O)cc1 (stereo not given)
- GI50 (KM12): > 100 µM (inactive)
- GI50 (MDA-MB-435): > 100 µM (inactive)
- GI50 (M14): > 100 µM (inactive)
- GI50 (SF-539): > 100 µM (inactive)
- GI50 (HOP-92): > 100 µM (inactive)
- GI50 (A549): > 100 µM (inactive)
- GI50 (OVCAR-8): > 100 µM (inactive)
- GI50 (UO-31): > 100 µM (inactive)
- GI50 (CAKI-1): > 100 µM (inactive)
- GI50 (U-251): > 100 µM (inactive)
- GI50 (OVCAR-5): > 100 µM (inactive)
- GI50 (SK-MEL-2): > 100 µM (inactive)
- GI50 (SNB-75): > 100 µM (inactive)
- GI50 (HCC 2998): > 100 µM (inactive)
- GI50 (MDA-N): > 100 µM (inactive)
- GI50 (NCI-H226): > 100 µM (inactive)
- GI50 (UACC-257): > 100 µM (inactive)
- GI50 (NCI-H522): > 100 µM (inactive)
- GI50 (A498): > 100 µM (inactive)
- GI50 (HL-60): > 100 µM (inactive)
- GI50 (RXF 393): > 100 µM (inactive)
- GI50 (SF-268): > 100 µM (inactive)
- GI50 (UACC-62): > 100 µM (inactive)
- GI50 (EKVX): > 100 µM (inactive)
- GI50 (COLO 205): > 100 µM (inactive)
- GI50 (OVCAR-4): > 100 µM (inactive)
- GI50 (T47D): > 100 µM (inactive)
- GI50 (SR): > 100 µM (inactive)
- GI50 (CCRF-CEM): > 100 µM (inactive)
- GI50 (SK-MEL-28): > 100 µM (inactive)
- GI50 (BT-549): > 100 µM (inactive)
- GI50 (LOX IMVI): > 100 µM (inactive)
- GI50 (SK-OV-3): > 100 µM (inactive)
- GI50 (OVCAR-3): > 100 µM (inactive)
- GI50 (786-0): > 100 µM (inactive)
- GI50 (HT-29): > 100 µM (inactive)
- GI50 (NCI-H460): > 100 µM (inactive)
- GI50 (IGROV-1): > 100 µM (inactive)
- GI50 (HCT-116): > 100 µM (inactive)
- GI50 (HCT-15): > 100 µM
- GI50 (ACHN): > 100 µM (inactive)
- GI50 (DU-145): > 100 µM (inactive)
- GI50 (PC-3): > 100 µM (inactive)
- GI50 (Malme-3M): > 100 µM (inactive)
- GI50 (MDA-MB-231): > 100 µM (inactive)
- GI50 (SN12C): > 100 µM (inactive)
- GI50 (TK-10): > 100 µM (inactive)
- GI50 (SF-295): > 100 µM (inactive)
- GI50 (SW-620): > 100 µM (inactive)
- GI50 (NCI/ADR-RES): > 100 µM (inactive)
- GI50 (MCF7): > 100 µM (inactive)
- GI50 (SNB-19): > 100 µM (inactive)
- GI50 (K562): > 100 µM (inactive)
- GI50 (HOP-62): > 100 µM (inactive)
- GI50 (NCI-H23): > 100 µM (inactive)
- GI50 (MOLT-4): > 100 µM (inactive)
